Cc1c(C(=O)O)cccc1[N+](=O)[O-]
solubility (mole fraction)
Details	in 1,4-dioxane	in 2-butanone	in acetone	in acetonitrile	in ethanol	in ethyl acetate	in isopropanol	in methanol	in n-propanol
283.15 K	–	0.0528	0.0601	0.00849	0.0149	0.0312	0.0129	0.0162	0.0111
285.65 K	0.0704	0.0544	0.0614	0.00919	0.0165	0.0325	0.0145	0.018	0.0127
288.15 K	0.0718	0.056	0.0627	0.00993	0.0186	0.0341	0.0164	0.0202	0.0144
290.65 K	0.0734	0.0576	0.0641	0.0107	0.0207	0.0357	0.0184	0.0225	0.0162
293.15 K	0.0749	0.0592	0.0655	0.0117	0.0232	0.0373	0.0206	0.0255	0.0182
295.65 K	0.0764	0.0609	0.0668	0.0127	0.0259	0.039	0.023	0.0286	0.0205
298.15 K	0.0779	0.0626	0.0684	0.0138	0.0286	0.0406	0.0259	0.0319	0.0231
300.65 K	0.0796	0.0645	0.0699	0.0149	0.0317	0.0423	0.0289	0.0354	0.0258
303.15 K	0.0814	0.0664	0.0715	0.0161	0.0351	0.0442	0.0324	0.0392	0.0291
305.65 K	0.0831	0.0683	0.0728	0.0172	0.0388	0.046	0.0362	0.0436	0.0326
308.15 K	0.0847	0.0703	0.0745	0.0186	0.043	0.0478	0.0396	0.0483	0.0365
310.65 K	0.0865	0.0722	0.0761	0.0199	0.0475	0.0499	0.0438	0.0529	0.0404
313.15 K	0.0884	0.0741	0.0777	0.0211	0.0524	0.0518	0.0485	0.0579	0.0455
315.65 K	0.0902	0.0764	0.0793	0.0226	0.0579	0.054	0.0533	0.0634	0.0506
318.15 K	0.0921	0.0786	0.0808	0.0242	0.064	0.056	0.0587	0.0685	0.0556

From BigSolDB 2.1
